Laboratory results as given in US20240374590A1, “COMPOSITIONS AND METHODS FOR TREATING CANCER” (A2A PHARMACEUTICALS, INC., priority 2021, published 2024).

Legend:
[1] = test system: JIMT-1 human breast cancer cell line; assay: Cell viability assay (SRB) in JIMT-1; format: cell-based; conditions: 72 hours after treatment, read-out: JIMT1 IC50
Protocol: (§1) Human colon carcinoma cell line HCT-116 was a kind gift from Igor Ronninson from University of South Caroli, Columbia, USA. Human breast cancer cell line, JIMT-1 was kindly provided by Ali Osmay Güre from Bilkent University, Ankara, Turkey. Cells were cultured in Dulbecco's modified Eagle's medium (Lonza, NJ, USA), supplemented with 10% fetal bovine serum (FBS, Lonza), 1% non-essential amino acid (NEAA), 2 mM L-glutamine (Sigma Aldrich, MO, USA) and 50 U/ml penicillin/streptomycin (P/S). HCT-116 cells were cultured in McCoy's 5A (modified) (Gibco) medium supplemented with FBS, NEAA, L-glutamine and P/S. All cell lines were tested regularly using MycoAlert Mycoplasma Detection Kit (Lonza). The cumulative length of the cells between thawing and use in the experiments was less than 20 passages.
(§2) Newly synthesized molecules were dissolved in 100% DMSO to yield a stock concentration of 10 mM. For cell viability assay, JIMT-1 (3×10^3 cells/well) and HCT-116 (4×10^3), cells were seeded into 96-well plates, and 24 hours after cell seeding inhibitor treatments were performed at different concentrations. Cell viability was measured 72 hours after treatment with Sulforhodamine B (SRB, Sigma Aldrich) assay as recommended by the manufacturer.

[2] = test system: HCT-116 human colon carcinoma cell line; assay: Cell viability assay (SRB) in HCT-116; format: cell-based; conditions: 72 hours after treatment, read-out: HCT116 IC50
Protocol: as §1, §2

SMILES	IC50 [1]	IC50 [2]
FC(F)Oc1ccc(-c2cc(Nc3ccnc(N4C[C@@H]5C[C@H]4CO5)n3)[nH]n2)cc1 [Compound 261, 2-((1S,4S)-2-oxa-5-azabicyclo[2.2.1]heptan-5-yl)-N-(3-(4-(difluoromethoxy)phenyl)-1H-pyrazol-5-yl)pyrimidin-4-amine]	0.4 µM	7.2 µM
C[C@@H]1COCCN1c1ncc(F)c(Nc2cc(-c3ccc(OC(F)F)cc3)n[nH]2)n1 [Compound 295, (R)-N-(3-(4-(difluoromethoxy)phenyl)-1H-pyrazol-5-yl)-5-fluoro-2-(3-methylmorpholino)pyrimidin-4-amine]	≥ 10 µM	7.51 µM
COc1cc(F)c(-c2cc(Nc3ccnc(N4C[C@@H](C)O[C@@H](C)C4)n3)[nH]n2)cc1F [Compound 218, N-(3-(2,5-difluoro-4-methoxyphenyl)-1H-pyrazol-5-yl)-2-((2R,6S)-2,6-dimethylmorpholino)pyrimidin-4-amine]	0.013 µM	0.02 µM
C[C@@H]1CN(c2ncc(F)c(Nc3cc(-c4ccc(OC(F)F)cc4)n[nH]3)n2)C[C@@H](C)O1 [Compound 292, N-(3-(4-(difluoromethoxy)phenyl)-1H-pyrazol-5-yl)-2-((2R,6R)-2,6-dimethylmorpholino)-5-fluoropyrimidin-4-amine]	0.659 µM	0.996 µM
COc1ccc(-c2cc(Nc3ccnc(N4CCC(C(F)(F)F)CC4)n3)[nH]n2)cc1 [Compound 70, N-(3-(4-methoxyphenyl)-1H-pyrazol-5-yl)-2-(4-(trifluoromethyl)piperidin-1-yl)pyrimidin-4-amine]	0.026 µM	0.028 µM
FC1CN(c2nccc(Nc3cc(-c4ccc(OC(F)F)cc4)n[nH]3)n2)C1 [Compound 246, N-(3-(4-(difluoromethoxy)phenyl)-1H-pyrazol-5-yl)-2-(3-fluoroazetidin-1-yl)pyrimidin-4-amine]	0.071 µM	≥ 10 µM
COc1ccc(-c2cc(Nc3ccnc(N4CCN(C)CC4)n3)[nH]n2)c(F)c1 [Compound 148, N-(3-(2-fluoro-4-methoxyphenyl)-1H-pyrazol-5-yl)-2-(4-methylpiperazin-1-yl)pyrimidin-4-amine]	0.213 µM	0.986 µM
COc1ccc(-c2cc(Nc3ccnc(N4CCC(C)CC4)n3)[nH]n2)cc1F [Compound 87, N-(3-(3-fluoro-4-methoxyphenyl)-1H-pyrazol-5-yl)-2-(4-methylpiperidin-1-yl)pyrimidin-4-amine]	0.025 µM	0.025 µM
C[C@@H]1COCCN1c1nccc(Nc2cc(-c3ccc(OC(F)F)cc3)n[nH]2)n1 [Compound 264, (R)-N-(3-(4-(difluoromethoxy)phenyl)-1H-pyrazol-5-yl)-2-(3-methylmorpholino)pyrimidin-4-amine]	0.127 µM	0.302 µM
CC1(C)CN(c2nccc(Nc3cc(-c4ccc(OC(F)F)cc4)n[nH]3)n2)C1 [Compound 247, N-(3-(4-(difluoromethoxy)phenyl)-1H-pyrazol-5-yl)-2-(3,3-dimethylazetidin-1-yl)pyrimidin-4-amine]	0.142 µM	≥ 10 µM
C[C@@H]1CN(c2nccc(Nc3cc(-c4ccc(C(F)F)cc4)n[nH]3)n2)C[C@H](C)O1 [Compound 202, N-(3-(4-(difluoromethyl)phenyl)-1H-pyrazol-5-yl)-2-((2R,6S)-2,6-dimethylmorpholino)pyrimidin-4-amine]	0.187 µM	0.722 µM
COc1ccc(-c2cc(Nc3ccnc(N4C[C@@H](C)O[C@H](C)C4)n3)[nH]n2)cc1F [Compound 106, 2-((2R,6R)-2,6-dimethylmorpholino)-N-(3-(3-fluoro-4-methoxyphenyl)-1H-pyrazol-5-yl)pyrimidin-4-amine]	0.062 µM	0.091 µM
COc1ccc(-c2cc(Nc3ccnc(N4CCOCC4)n3)[nH]n2)c(Cl)c1 [Compound 27, N-(3-(2-chloro-4-methoxyphenyl)-1H-pyrazol-5-yl)-2-morpholinopyrimidin-4-amine]	0.367 µM	0.321 µM
COc1ccc(-c2cc(Nc3nc(N4C[C@@H](C)O[C@@H](C)C4)ncc3F)[nH]n2)c(F)c1 [Compound 282, 2-((2R,6S)-2,6-dimethylmorpholino)-5-fluoro-N-(3-(2-fluoro-4-methoxyphenyl)-1H-pyrazol-5-yl)pyrimidin-4-amine]	0.045 µM	0.046 µM
COc1ccc(-c2cc(Nc3ccnc(N4C5CCC4CC(C)C5)n3)[nH]n2)c(F)c1 (stereo not drawn) [Compound 145, N-(3-(2-fluoro-4-methoxyphenyl)-1H-pyrazol-5-yl)-2-(3-methyl-8-azabicyclo[3.2.1]octan-8-yl)pyrimidin-4-amine]	0.101 µM	0.279 µM
COc1ccc(-c2cc(Nc3ccnc(N4CCOC(C)C4)n3)[nH]n2)c(F)c1 (stereo not drawn) [Compound 137, N-(3-(2-fluoro-4-methoxyphenyl)-1H-pyrazol-5-yl)-2-(2-methylmorpholino)pyrimidin-4-amine]	0.024 µM	0.059 µM
C[C@H]1COCCN1c1ncc(F)c(Nc2cc(-c3ccc(OC(F)F)cc3)n[nH]2)n1 [Compound 294, (S)-N-(3-(4-(difluoromethoxy)phenyl)-1H-pyrazol-5-yl)-5-fluoro-2-(3-methylmorpholino)pyrimidin-4-amine]	0.636 µM	1.14 µM
C[C@@H]1CN(c2nccc(Nc3cc(-c4ccc(C#N)cc4)n[nH]3)n2)C[C@H](C)O1 [Compound 191b, 4-(5-((2-((2R,6S)-2,6-dimethylmorpholino)pyrimidin-4-yl)amino)-1H-pyrazol-3-yl)benzonitrile]	1.57 µM	1.52 µM
COc1cc(-c2cc(Nc3ccnc(N4C[C@@H](C)O[C@@H](C)C4)n3)[nH]n2)cc(OC)c1OC [Compound 203, 2-((2R,6S)-2,6-dimethylmorpholino)-N-(3-(3,4,5-trimethoxyphenyl)-1H-pyrazol-5-yl)pyrimidin-4-amine]	1.7 µM	2.49 µM
COc1ccc(-c2cc(Nc3ccnc(N4CCC(C)CC4)n3)[nH]n2)cc1 [Compound 69, N-(3-(4-methoxyphenyl)-1H-pyrazol-5-yl)-2-(4-methylpiperidin-1-yl)pyrimidin-4-amine]	0.025 µM	0.005 µM
COc1ccc(-c2cc(Nc3ccnc(N4CCC5(CCC5)CC4)n3)[nH]n2)c(F)c1 [Compound 142, N-(3-(2-fluoro-4-methoxyphenyl)-1H-pyrazol-5-yl)-2-(7-azaspiro[3.5]nonan-7-yl)pyrimidin-4-amine]	0.266 µM	1.21 µM
COc1ccc(-c2cc(Nc3ccnc(N4CCCC4C)n3)[nH]n2)c(F)c1 (stereo not drawn) [Compound 159, N-(3-(2-fluoro-4-methoxyphenyl)-1H-pyrazol-5-yl)-2-(2-methylpyrrolidin-1-yl)pyrimidin-4-amine]	0.047 µM	0.076 µM
C[C@@H]1CN(c2nccc(Nc3cc(-c4ccc(Br)cc4)n[nH]3)n2)C[C@H](C)O1 [Compound 208, N-(3-(4-bromophenyl)-1H-pyrazol-5-yl)-2-((2R,6S)-2,6-dimethylmorpholino)pyrimidin-4-amine]	0.212 µM	0.448 µM
COc1ccc(-c2cc(Nc3ccnc(N4CCOCC4)n3)[nH]n2)cc1 [Compound 5, N-(3-(4-methoxyphenyl)-1H-pyrazol-5-yl)-2-morpholinopyrimidin-4-amine]	0.005 µM	0.047 µM
